# Data as given in ChEMBL document CHEMBL4627352, “New acrylamide-sulfisoxazole conjugates as dihydropteroate synthase inhibitors” (Bioorg Med Chem, 2020).
# Activity calls are given as the source filed them. The rule behind the calls is not given here.
# Columns and labels:
# [1] = system: Streptococcus pneumoniae; assay: Inhibition of DHPS in Streptococcus pneumoniae assessed as antibacterial activity by measuring inhibition of bacterial growth incubated for 24 hrs by microbroth dilution method
# [2] = system: Geotrichum candidum; assay: Inhibition of DHPS in Geotrichum candidum assessed as antifungal activity by measuring inhibition of fungal growth incubated for 48 hrs by microbroth dilution method
# [3] = system: Proteus vulgaris; assay: Inhibition of DHPS in Proteus vulgaris assessed as antibacterial activity by measuring inhibition zone at 5 mg/mL incubated for 24 hrs by disk diffusion method
# [4] = system: Staphylococcus epidermidis; assay: Inhibition of DHPS in Staphylococcus epidermidis assessed as antibacterial activity by measuring inhibition zone at 5 mg/mL incubated for 24 hrs by disk diffusion method
# [5] = system: Escherichia coli ATCC 25922; assay: Inhibition of DHPS in Escherichia coli ATCC 25922 assessed as inhibition of bacterial growth incubated for 24 hrs in presence of folate dependent metabolite, methionine by microbroth dilution method
# [6] = system: Bacillus subtilis; assay: Inhibition of DHPS in Bacillus subtilis assessed as antibacterial activity by measuring inhibition zone at 5 mg/mL incubated for 24 hrs by disk diffusion method
# [7] = system: Escherichia coli; assay: Inhibition of DHPS in Escherichia coli assessed as antibacterial activity by measuring inhibition zone at 5 mg/mL incubated for 24 hrs by disk diffusion method
# [8] = system: Streptococcus pneumoniae; assay: Inhibition of DHPS in Streptococcus pneumoniae assessed as antibacterial activity by measuring inhibition zone at 5 mg/mL incubated for 24 hrs by disk diffusion method
# [9] = system: Geotrichum candidum; assay: Inhibition of DHPS in Geotrichum candidum assessed as antifungal activity by measuring inhibition zone at 5 mg/mL incubated for 48 hrs by disk diffusion method
# [10] = system: Staphylococcus epidermidis; assay: Inhibition of DHPS in Staphylococcus epidermidis assessed as antibacterial activity by measuring inhibition of bacterial growth incubated for 24 hrs by microbroth dilution method
# [11] = system: Escherichia coli ATCC 25922; assay: Inhibition of DHPS in Escherichia coli ATCC 25922 assessed as inhibition of bacterial growth incubated for 24 hrs in presence of folate precursor, pABA by microbroth dilution method
# [12] = system: Aspergillus fumigatus; assay: Inhibition of DHPS in Aspergillus fumigatus assessed as antifungal activity by measuring inhibition zone at 5 mg/mL incubated for 48 hrs by disk diffusion method
# [13] = system: Syncephalastrum racemosum; assay: Potency index, ratio of sulfisoxazole MIC to compound MIC for Syncephalastrum racemosum assessed as inhibition of DHPS-mediated fungal growth incubated for 48 hrs by microbroth dilution method
# [14] = system: Aspergillus fumigatus; assay: Potency index, ratio of sulfisoxazole MIC to compound MIC for Aspergillus fumigatus assessed as inhibition of DHPS-mediated fungal growth incubated for 48 hrs by microbroth dilution method
# [15] = system: Klebsiella pneumoniae; assay: Inhibition of DHPS in Klebsiella pneumoniae assessed as antibacterial activity by measuring inhibition zone at 5 mg/mL incubated for 24 hrs by disk diffusion method
# [16] = system: Syncephalastrum racemosum; assay: Inhibition of DHPS in Syncephalastrum racemosum assessed as antifungal activity by measuring inhibition zone at 5 mg/mL incubated for 48 hrs by disk diffusion method
# [17] = system: hTERT-BJ; assay: Cytotoxicity against human hTERT-BJ1 cells at 50 uM by acid phosphatase assay relative to control; assay type: cell-based
# [18] = system: Escherichia coli; assay: Inhibition of DHPS in Escherichia coli assessed as antibacterial activity by measuring inhibition of bacterial growth incubated for 24 hrs by microbroth dilution method
# [19] = system: Bacillus subtilis; assay: Inhibition of DHPS in Bacillus subtilis assessed as antibacterial activity by measuring inhibition of bacterial growth incubated for 24 hrs by microbroth dilution method
# [20] = system: Klebsiella pneumoniae; assay: Inhibition of DHPS in Klebsiella pneumoniae assessed as antibacterial activity by measuring inhibition of bacterial growth incubated for 24 hrs by microbroth dilution method
# [21] = system: Aspergillus fumigatus; assay: Inhibition of DHPS in Aspergillus fumigatus assessed as antifungal activity by measuring inhibition of fungal growth incubated for 48 hrs by microbroth dilution method
# [22] = system: Syncephalastrum racemosum; assay: Inhibition of DHPS in Syncephalastrum racemosum assessed as antifungal activity by measuring inhibition of fungal growth incubated for 48 hrs by microbroth dilution method
# [23] = system: Escherichia coli; assay: Potency index, ratio of sulfisoxazole MIC to compound MIC for Escherichia coli assessed as inhibition of DHPS-mediated bacterial growth incubated for 24 hrs by microbroth dilution method
# [24] = system: Proteus vulgaris; assay: Inhibition of DHPS in Proteus vulgaris assessed as antibacterial activity by measuring inhibition of bacterial growth incubated for 24 hrs by microbroth dilution method
# [25] = system: Syncephalastrum racemosum; assay: Potency index, ratio of amphotericin B MIC to compound MIC for Syncephalastrum racemosum assessed as inhibition of DHPS-mediated fungal growth incubated for 48 hrs by microbroth dilution method
# [26] = system: Escherichia coli; assay: Potency index, ratio of gentamycin MIC to compound MIC for Escherichia coli assessed as inhibition of DHPS-mediated bacterial growth incubated for 24 hrs by microbroth dilution method
# [27] = system: Bacillus subtilis; assay: Potency index, ratio of ampicillin MIC to compound MIC for Bacillus subtilis assessed as inhibition of DHPS-mediated bacterial growth incubated for 24 hrs by microbroth dilution method
# [28] = system: Geotrichum candidum; assay: Potency index, ratio of sulfisoxazole MIC to compound MIC for Geotrichum candidum assessed as inhibition of DHPS-mediated fungal growth incubated for 48 hrs by microbroth dilution method
# [29] = system: Klebsiella pneumoniae; assay: Potency index, ratio of sulfisoxazole MIC to compound MIC for Klebsiella pneumoniae assessed as inhibition of DHPS-mediated bacterial growth incubated for 24 hrs by microbroth dilution method
# [30] = system: Staphylococcus epidermidis; assay: Potency index, ratio of sulfisoxazole MIC to compound MIC for Staphylococcus epidermidis assessed as inhibition of DHPS-mediated bacterial growth incubated for 24 hrs by microbroth dilution method
SMILES,MIC [1],MIC [2],inhibition zone (IZ) [3],inhibition zone (IZ) [4],inhibition [5],inhibition zone (IZ) [6],inhibition zone (IZ) [7],inhibition zone (IZ) [8],inhibition zone (IZ) [9],MIC [10],inhibition [11],inhibition zone (IZ) [12],inhibition zone (IZ) [15],inhibition zone (IZ) [16],MIC [18],MIC [19],MIC [20],MIC [21],MIC [22],MIC [24],further results
CN/C(S[C@@H]1O[C@H](COC(C)=O)[C@H](OC(C)=O)[C@H](OC(C)=O)[C@H]1OC(C)=O)=C(/C#N)C(=O)Nc1ccc(S(=O)(=O)Nc2onc(C)c2C)cc1,15.6 µg/mL,62.5 µg/mL,11.8 mm,15.4 mm,inactive,16.8 mm,16.3 mm,17.3 mm,16.9 mm,62.5 µg/mL,inactive,16.3 mm,17.1 mm,15.1 mm,15.6 µg/mL,15.6 µg/mL,31.2 µg/mL,31.2 µg/mL,62.5 µg/mL,–,Ratio [13]: 1 to 3; Ratio [14]: 1 to 3; Activity [17]: 26%
CCN/C(S[C@@H]1O[C@H](COC(C)=O)[C@H](OC(C)=O)[C@H](OC(C)=O)[C@H]1OC(C)=O)=C(/C#N)C(=O)Nc1ccc(S(=O)(=O)Nc2onc(C)c2C)cc1,7.8 µg/mL,31.2 µg/mL,13.4 mm,16.3 mm,inactive,17.6 mm,17.1 mm,18.9 mm,18.3 mm,31.2 µg/mL,inactive,17.2 mm,19.8 mm,15.9 mm,7.81 µg/mL,7.8 µg/mL,7.81 µg/mL,15.6 µg/mL,31.2 µg/mL,125 µg/mL,Ratio [23]: 3; Ratio [13]: 1 to 3; Ratio [14]: 1 to 3
C=CCN/C(SCC)=C(/C#N)C(=O)Nc1ccc(S(=O)(=O)Nc2onc(C)c2C)cc1,0.12 µg/mL,1.95 µg/mL,20.7 mm,24.2 mm,inactive,26.8 mm,21.8 mm,24.9 mm,22.1 mm,0.25 µg/mL,inactive,22.9 mm,24.7 mm,22.4 mm,0.98 µg/mL,0.12 µg/mL,0.25 µg/mL,0.49 µg/mL,0.98 µg/mL,3.9 µg/mL,Ratio [25]: 3; Ratio [26]: 2; Ratio [27]: 2
C=CCN/C(S[C@@H]1O[C@H](COC(C)=O)[C@H](OC(C)=O)[C@H](OC(C)=O)[C@H]1OC(C)=O)=C(/C#N)C(=O)Nc1ccc(S(=O)(=O)Nc2onc(C)c2C)cc1,3.9 µg/mL,3.9 µg/mL,15.2 mm,17.1 mm,inactive,20.8 mm,18.3 mm,19.3 mm,20.2 mm,15.6 µg/mL,inactive,18.3 mm,21.2 mm,17.2 mm,7.81 µg/mL,0.98 µg/mL,0.98 µg/mL,7.81 µg/mL,15.6 µg/mL,62.5 µg/mL,Ratio [28]: 2; Ratio [23]: 3; Ratio [29]: 4; Ratio [13]: 1 to 3; Ratio [14]: 1 to 3; Activity [17]: 28.6%
C=CCN/C(S[C@@H]1O[C@H](COC(C)=O)[C@@H](OC(C)=O)[C@H](OC(C)=O)[C@H]1OC(C)=O)=C(/C#N)C(=O)Nc1ccc(S(=O)(=O)Nc2onc(C)c2C)cc1,1.95 µg/mL,0.49 µg/mL,inactive,25.6 mm,inactive,28.6 mm,23.4 mm,26.7 mm,23.2 mm,3.9 µg/mL,inactive,26.1 mm,23.2 mm,24.4 mm,3.9 µg/mL,0.98 µg/mL,0.49 µg/mL,0.98 µg/mL,1.95 µg/mL,–,Ratio [28]: 3 to 5; Ratio [25]: 2; Ratio [23]: 4; Ratio [14]: 4 to 6; Activity [17]: 15.2%
CN/C(S)=C(/C#N)C(=O)Nc1ccc(S(=O)(=O)Nc2onc(C)c2C)cc1,3.9 µg/mL,3.9 µg/mL,18.3 mm,20.8 mm,inactive,22.4 mm,20.6 mm,20.3 mm,18.9 mm,1.95 µg/mL,inactive,18.6 mm,22.6 mm,17.2 mm,1.95 µg/mL,0.98 µg/mL,0.98 µg/mL,3.9 µg/mL,15.6 µg/mL,7.81 µg/mL,Ratio [28]: 2; Ratio [29]: 3; Ratio [30]: 4; Ratio [14]: 4
CCN/C(S[C@@H]1O[C@H](COC(C)=O)[C@@H](OC(C)=O)[C@H](OC(C)=O)[C@H]1OC(C)=O)=C(/C#N)C(=O)Nc1ccc(S(=O)(=O)Nc2onc(C)c2C)cc1,3.9 µg/mL,0.98 µg/mL,21.4 mm,24.7 mm,inactive,27.5 mm,21.3 mm,25.3 mm,22.1 mm,3.9 µg/mL,inactive,24.2 mm,18.8 mm,21.3 mm,7.81 µg/mL,1.95 µg/mL,0.98 µg/mL,3.9 µg/mL,15.6 µg/mL,7.81 µg/mL,Ratio [28]: 3 to 5; Ratio [14]: 4 to 6
CCN/C(SCC)=C(/C#N)C(=O)Nc1ccc(S(=O)(=O)Nc2onc(C)c2C)cc1,0.12 µg/mL,3.9 µg/mL,19.6 mm,22.8 mm,inactive,26.3 mm,20.6 mm,24.3 mm,20.4 mm,0.49 µg/mL,inactive,21.6 mm,23.2 mm,20.3 mm,1.95 µg/mL,0.12 µg/mL,0.49 µg/mL,0.98 µg/mL,3.9 µg/mL,3.9 µg/mL,Ratio [25]: 2; Activity [17]: 8.5%; Ratio [27]: 2
CCS/C(NC)=C(\C#N)C(=O)Nc1ccc(S(=O)(=O)Nc2onc(C)c2C)cc1,3.9 µg/mL,7.81 µg/mL,16.4 mm,20.9 mm,inactive,21.2 mm,18.2 mm,20.2 mm,18.3 mm,1.95 µg/mL,inactive,17.1 mm,21.3 mm,19.9 mm,7.81 µg/mL,0.98 µg/mL,1.95 µg/mL,15.6 µg/mL,3.9 µg/mL,31.2 µg/mL,Ratio [25]: 2; Activity [17]: 2.7%
